Measured values from patent publication US9701689B2, “Substituted pyridines and pyridazines as CCR10 receptor inhibitors” (KYOWA HAKKO KIRIN CO., LTD., priority 2012, dated 2017).

Target: T1, human CCR10 (Homo sapiens, UniProt P46092)
T1 construct: expressed in transfected cells; host or cells: KJMGER8 cells (Namalwa cell-derived line), beta-estradiol-induced; hCCR10G16 cells
T1 sequence (P46092 1-362): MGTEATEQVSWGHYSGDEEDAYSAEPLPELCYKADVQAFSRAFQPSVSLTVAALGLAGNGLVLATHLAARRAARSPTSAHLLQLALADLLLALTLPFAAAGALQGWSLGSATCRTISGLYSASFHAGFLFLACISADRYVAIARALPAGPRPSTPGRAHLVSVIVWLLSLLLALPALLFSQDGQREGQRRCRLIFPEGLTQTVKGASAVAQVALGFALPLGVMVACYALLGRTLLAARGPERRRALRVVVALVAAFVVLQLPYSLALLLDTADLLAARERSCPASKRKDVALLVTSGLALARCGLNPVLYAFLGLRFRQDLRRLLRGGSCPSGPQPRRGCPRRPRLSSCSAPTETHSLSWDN
Test: CCR10 antagonistic effect: calcium assay of human CCR10 (CTACK-induced increase of intracellular calcium in hCCR10G16 cells)
Format: cell-based
Conditions: at a concentration of not more than 1000 nmol/L; human CCR10-expressing hCCR10G16 cells, 300 nmol/L CTACK added; read-out: inhibition of increase in the calcium ion concentration
Procedure, shortened: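 Inhibition of CTACK-evoked calcium flux (max minus min Fluo-3 fluorescence over ~5 min, FDSS) was calculated against control in β-estradiol-induced human CCR10/Gα16 KJMGER8 cells, after 30 min compound preincubation at 37 °C; CTACK added from a 300 nmol/L solution.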

Row | Structure (SMILES) | inhibition at up to 1 µM
1 | Cc1cc(F)ccc1Nc1cc(S(=O)(=O)NC2CCNC2=O)ncc1C(=O)N1CCC(c2ccc(F)cc2)CC1 (stereo not drawn) [Compound 142, 4-(4-fluoro-2-methylphenylamino)-5-[4-(4-fluorophenyl)piperidine-1-carbonyl]-N-(2-oxopyrrolidin-3-yl)pyridine-2-sulfonamide] | ≥ 50%
2 | Cc1cc(F)ccc1Nc1cc(S(=O)(=O)N2CCOC2=O)ncc1C(=O)N1CCC(c2ccc(F)cc2)CC1 [Compound 143, 3-{4-(4-fluoro-2-methylphenylamino)-5-[4-(4-fluorophenyl)piperidine-1-carbonyl]pyridin-2-ylsulfonyl}oxazolidin-2-one] | ≥ 50%
3 | Cc1cc(F)ccc1Nc1cc(S(=O)(=O)N2CCNC2=O)ncc1C(=O)N1CCC(c2ccc(F)cc2)CC1 [Compound 144, 1-{4-(4-fluoro-2-methylphenylamino)-5-[4-(4-fluorophenyl)piperidine-1-carbonyl]pyridin-2-ylsulfonyl}imidazolidin-2-one] | ≥ 50%
4 | Cc1cc(F)ccc1Nc1cc(S(=O)(=O)Nc2ncccn2)ncc1C(=O)N1CCC(c2ccc(F)cc2)CC1 [Compound 145, 4-(4-fluoro-2-methylphenylamino)-5-[4-(4-fluorophenyl)piperidine-1-carbonyl]-N-(pyrimidin-2-yl)pyridine-2-sulfonamide] | ≥ 50%
5 | Cc1cc(F)ccc1Nc1cc(S(=O)(=O)Nc2ccccn2)ncc1C(=O)N1CCC(c2ccc(F)cc2)CC1 [Compound 146, 4-(4-fluoro-2-methylphenylamino)-5-[4-(4-fluorophenyl)piperidine-1-carbonyl]-N-(pyridin-2-yl)pyridine-2-sulfonamide] | ≥ 50%
6 | Cc1cc(F)ccc1Nc1cc(S(=O)(=O)Nc2ncc(Br)cn2)ncc1C(=O)N1CCC(c2ccc(F)cc2)CC1 [Compound 147, N-(5-bromopyrimidin-2-yl)-4-(4-fluoro-2-methylphenylamino)-5-[4-(4-fluorophenyl)piperidine-1-carbonyl]pyridine-2-sulfonamide] | ≥ 50%
7 | Cc1cc(F)ccc1Nc1cc(S(=O)(=O)Nc2nccs2)ncc1C(=O)N1CCC(c2ccc(F)cc2)CC1 [Compound 148, 4-(4-fluoro-2-methylphenylamino)-5-[4-(4-fluorophenyl)piperidine-1-carbonyl]-N-(thiazol-2-yl)pyridine-2-sulfonamide] | ≥ 50%
8 | Cc1cc(F)ccc1Nc1cc(S(=O)(=O)Nc2nccn2C)ncc1C(=O)N1CCC(c2ccc(F)cc2)CC1 [Compound 149, 4-(4-fluoro-2-methylphenylamino)-5-[4-(4-fluorophenyl)piperidine-1-carbonyl]-N-(1-methyl-1H-imidazol-2-yl)pyridine-2-sulfonamide] | ≥ 50%
9 | CSc1nccc(NS(=O)(=O)c2cc(Nc3ccc(F)cc3C)c(C(=O)N3CCC(c4ccc(F)cc4)CC3)cn2)n1 [Compound 150, 4-(4-fluoro-2-methylphenylamino)-5-[4-(4-fluorophenyl)piperidine-1-carbonyl]-N-[2-(methylthio)pyrimidin-4-yl]pyridine-2-sulfonamide] | ≥ 50%
10 | Cc1cc(F)ccc1Nc1cc(S(=O)(=O)Nc2c(C)noc2C)ncc1C(=O)N1CCC(c2ccc(F)cc2)CC1 [Compound 151, N-(3,5-dimethylisoxazol-4-yl)-4-(4-fluoro-2-methylphenylamino)-5-[4-(4-fluorophenyl)piperidine-1-carbonyl]pyridine-2-sulfonamide] | ≥ 50%
11 | Cc1cc(F)ccc1Nc1cc(S(=O)(=O)Nc2c(C)nn(C)c2C)ncc1C(=O)N1CCC(c2ccc(F)cc2)CC1 [Compound 152, 4-(4-fluoro-2-methylphenylamino)-5-[4-(4-fluorophenyl)piperidine-1-carbonyl]-N-(1,3,5-trimethyl-1H-pyrazol-4-yl)pyridine-2-sulfonamide] | ≥ 50%
12 | Cc1cc(F)ccc1Nc1cc(S(=O)(=O)Nc2ccn(C)n2)ncc1C(=O)N1CCC(c2ccc(F)cc2)CC1 [Compound 153, 4-(4-fluoro-2-methylphenylamino)-5-[4-(4-fluorophenyl)piperidine-1-carbonyl]-N-(1-methyl-1H-pyrazol-3-yl)pyridine-2-sulfonamide] | ≥ 50%
13 | Cc1cc(F)ccc1Nc1cc(S(=O)(=O)Nc2cscn2)ncc1C(=O)N1CCC(c2ccc(F)cc2)CC1 [Compound 154, 4-(4-fluoro-2-methylphenylamino)-5-[4-(4-fluorophenyl)piperidine-1-carbonyl]-N-(thiazol-4-yl)pyridine-2-sulfonamide] | ≥ 50%
14 | Cc1cc(F)ccc1Nc1cc(S(=O)(=O)Nc2cncs2)ncc1C(=O)N1CCC(c2ccc(F)cc2)CC1 [Compound 155, 4-(4-fluoro-2-methylphenylamino)-5-[4-(4-fluorophenyl)piperidine-1-carbonyl]-N-(thiazol-5-yl)pyridine-2-sulfonamide] | ≥ 50%
15 | Cc1cc(F)ccc1Nc1cc(S(=O)(=O)Nc2cncnc2)ncc1C(=O)N1CCC(c2ccc(F)cc2)CC1 [Compound 156, 4-(4-fluoro-2-methylphenylamino)-5-[4-(4-fluorophenyl)piperidine-1-carbonyl]-N-(pyrimidin-5-yl)pyridine-2-sulfonamide] | ≥ 50%
16 | Cc1cc(NS(=O)(=O)c2cc(Nc3ccc(F)cc3C)c(C(=O)N3CCC(c4ccc(F)cc4)CC3)cn2)no1 [Compound 157, 4-(4-fluoro-2-methylphenylamino)-5-[4-(4-fluorophenyl)piperidine-1-carbonyl]-N-(5-methylisoxazol-3-yl)pyridine-2-sulfonamide] | ≥ 50%
17 | Cc1cc(F)ccc1Nc1cc(S(=O)(=O)Nc2onc(C)c2C)ncc1C(=O)N1CCC(c2ccc(F)cc2)CC1 [Compound 158, N-(3,4-dimethylisoxazol-5-yl)-4-(4-fluoro-2-methylphenylamino)-5-[4-(4-fluorophenyl)piperidine-1-carbonyl]pyridine-2-sulfonamide] | ≥ 50%
18 | Cc1cc(F)ccc1Nc1cc(S(=O)(=O)Nc2cc(C(C)(C)C)on2)ncc1C(=O)N1CCC(c2ccc(F)cc2)CC1 [Compound 159, N-(5-tert-butylisoxazol-3-yl)-4-(4-fluoro-2-methylphenylamino)-5-[4-(4-fluorophenyl)piperidine-1-carbonyl]pyridine-2-sulfonamide] | ≥ 50%
19 | Cc1cc(F)ccc1Nc1cc(S(=O)(=O)NC(=O)C2CC2)ncc1C(=O)N1CCC(c2ccc(F)cc2)CC1 [Compound 160, N-{4-(4-fluoro-2-methylphenylamino)-5-[4-(4-fluorophenyl)piperidine-1-carbonyl]pyridin-2-ylsulfonyl}cyclopropanecarboxamide] | ≥ 50%
20 | CCNC(=O)NS(=O)(=O)c1cc(Nc2cc(C)ccc2Cl)c(C(=O)N2CCC(c3ccc(F)cc3)CC2)cn1 [Compound 161, 4-(2-chloro-5-methylphenylamino)-N-(ethylcarbamoyl)-5-[4-(4-fluorophenyl)piperidine-1-carbonyl]pyridine-2-sulfonamide] | ≥ 50%
21 | CCCNC(=O)NS(=O)(=O)c1cc(Nc2cc(C)ccc2Cl)c(C(=O)N2CCC(c3ccc(F)cc3)CC2)cn1 [Compound 162, 4-(2-chloro-5-methylphenylamino)-5-[4-(4-fluorophenyl)piperidine-1-carbonyl]-N-(propylcarbamoyl)pyridine-2-sulfonamide] | ≥ 50%
